ChEMBL document CHEMBL1148592, “Synthesis and antiviral evaluation of cyclic and acyclic 2-methyl-3-hydroxy-4-pyridinone nucleoside derivatives” (J Med Chem, 2006)

How the values were obtained:
[1] = test system: Human immunodeficiency virus 1; test: Antiviral activity against HIV1 IIIB in CEM cells; format: functional, organism-based; settings: Human immunodeficiency virus 1, 3B, CCRF-CEM
[2] = test system: Human immunodeficiency virus 2; test: Antiviral activity against HIV2 ROD in CEM cells; format: functional, organism-based; settings: Human immunodeficiency virus 2, ROD, CCRF-CEM
Human alphaherpesvirus 2 = test: Antiviral activity against HSV2 G in HEL cells; format: functional, organism-based; settings: Human alphaherpesvirus 2, G
[3] = Minimum toxic concentration in HEL cells; format: toxicity, cell-based; settings: human, read-out: MTC
Human alphaherpesvirus 1 [4] = test: Antiviral activity against HSV1 KOS in HEL cells; format: functional, organism-based; settings: Human alphaherpesvirus 1, KOS
CCRF-CEM = test: Cytotoxicity in CEM cells; format: functional; settings: Homo sapiens
Human alphaherpesvirus 1 [5] = test: Antiviral activity against HSV1 TK- in HEL cells; format: functional, organism-based; settings: Human alphaherpesvirus 1, TK-

Row | SMILES | EC50 [1] | EC50 [2] | EC50 (Human alphaherpesvirus 2) | MCC [3] | EC50 (Human alphaherpesvirus 1 [4]) | CC50 (CCRF-CEM) | EC50 (Human alphaherpesvirus 1 [5])
1 | Cc1c(O)c(=O)ccn1[C@H]1CC[C@@H](CO)O1 | > 50 µM | > 50 µM | > 900 µM | > 900 µM | 40 µM | > 50 µM | 500 µM
2 | Cc1c(O)c(=O)ccn1[C@H]1CC[C@H](CO)O1 | > 90 µM | > 90 µM | > 177 µM | > 900 µM | 177 µM | 84 µM | > 177 µM
3 | Cc1c(O)c(=O)ccn1CCOCP(=O)(O)O | > 50 µM | > 50 µM | > 200 µM | > 200 µM | > 200 µM | > 50 µM | –
4 | Cc1c(O)c(=O)ccn1[C@@H]1CC[C@@H](CO)O1 | > 50 µM | > 50 µM | > 177 µM | > 900 µM | 177 µM | 101 µM | > 177 µM
5 | Cc1c(OCc2ccccc2)c(=O)ccn1[C@H]1CC[C@@H](CO)O1 | > 150 µM | > 150 µM | > 200 µM | > 900 µM | > 200 µM | > 150 µM | > 200 µM
6 | Cc1c(O)c(=O)ccn1[C@@H]1CS[C@@H](CO)O1 (racemic) | > 80 µM | > 80 µM | 90 µM | > 400 µM | 40 µM | 188 µM | 95 µM
7 | Cc1c(O)c(=O)ccn1[C@H]1CS[C@@H](CO)O1 (racemic) | > 80 µM | > 80 µM | 81 µM | > 400 µM | 32 µM | 188 µM | 80 µM
8 | Nc1nc2c(ncn2COCCO)c(=O)[nH]1 [ACYCLOVIR] | > 50 µM | > 50 µM | 1.76 µM | > 1700 µM | 1.12 µM | – | 86.6 µM
9 | Nc1ccn(C[C@@H](CO)OCP(=O)(O)O)c(=O)n1 [CIDOFOVIR] | > 10 µM | > 10 µM | – | > 350 µM | 0.57 µM | – | –
10 | Nc1nc2c(ncn2COC(CO)CO)c(=O)[nH]1 [GANCICLOVIR] | > 50 µM | > 50 µM | 0.06 µM | – | – | – | –
11 | Cc1cn([C@H]2C[C@H](N=[N+]=[N-])[C@@H](CO)O2)c(=O)[nH]c1=O [ZIDOVUDINE] | 0.0055 µM | 0.0055 µM | – | – | – | > 100 µM | –
